Source: patent US20110144160A1, “Antagonists of Prostaglandin D2 Receptors” (Amira Pharmaceuticals, Inc., priority 2008, published 2011)

Tests used:
human DP1 receptor = target: T1, human DP1 receptor (Homo sapiens, UniProt Q13258); test: DP1 binding assay ([3H]BWA868C radioligand); conditions: human platelet membranes, 2 nM [3H]BWA868C; read-out: hDP1
T1 construct: tissue Biological Specialty Corporation; host or cells: human platelets, membrane preparation
T1 sequence (Q13258 1-359): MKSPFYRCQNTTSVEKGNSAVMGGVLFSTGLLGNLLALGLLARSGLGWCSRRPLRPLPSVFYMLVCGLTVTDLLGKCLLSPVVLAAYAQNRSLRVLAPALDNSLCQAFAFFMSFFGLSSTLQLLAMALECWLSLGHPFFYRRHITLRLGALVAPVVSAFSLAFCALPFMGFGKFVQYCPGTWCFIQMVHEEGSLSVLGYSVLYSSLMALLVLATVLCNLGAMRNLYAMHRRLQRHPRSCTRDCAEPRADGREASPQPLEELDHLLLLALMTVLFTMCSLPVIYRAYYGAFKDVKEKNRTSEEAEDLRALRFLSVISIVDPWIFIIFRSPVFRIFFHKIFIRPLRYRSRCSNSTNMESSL
Experimental: The ability of a compound to bind to the human DP1 receptor was evaluated via a radioligand membrane binding assay using the DP1 selective synthetic ligand [^3H]BWA868C. Packed human platelets (Biological Specialty Corporation), were resuspended in 6 volumes of Hepes/HBSS buffer (10 mM Hepes, 1 mM DTT in Hanks Balanced Salt Solution (HBSS), lysed and centrifuged at 75,000×g to pellet the membranes. Membranes were resuspended in Hepes/HBSS buffer to approximately 12 mg protein/ml. Membranes (20 μg protein/well) are incubated in 96-well plates with 2 nM [^3H]BWA868C and test compound in Assay Buffer (50 mM Hepes, 10 mM MnCl2, 1 mM EDTA, plus or minus 0.2% human serum albumin, pH 7.4) for 60 minutes at room temperature. The reactions are terminated by rapid filtration through Whatman GF/C glass fibre filter plates. The filter plates were pre-soaked in 0.33% polethylenimine for 30 minutes at room temperature then washed in Wash Buffer (50 mM Hepes, 0.5 M NaCl pH 7.4) prior to harvesting. After harvesting, the filter plates are washed 3 times with 1 ml cold Wash Buffer then dried. Scintillant is then added to the plates and the radioactivity retained on the filters is determined on a Packard TopCount (Perkin Elmer). Specific binding is determined as total radioactive binding minus non-specific binding in the presence of 10 μM BW A868C. IC50s were determined using GraphPad prism analysis of drug titration curves.

human DP2 receptor = target: T2, human DP2 receptor (Homo sapiens, UniProt Q9Y5Y4); test: DP2/CRTH2 binding assay ([3H]PGD2 radioligand); conditions: membranes of HEK293 cells expressing recombinant human DP2, 1 nM [3H]PGD2; read-out: hDP2
T2 construct: expressed in transfected cells
T2 sequence (Q9Y5Y4 1-395): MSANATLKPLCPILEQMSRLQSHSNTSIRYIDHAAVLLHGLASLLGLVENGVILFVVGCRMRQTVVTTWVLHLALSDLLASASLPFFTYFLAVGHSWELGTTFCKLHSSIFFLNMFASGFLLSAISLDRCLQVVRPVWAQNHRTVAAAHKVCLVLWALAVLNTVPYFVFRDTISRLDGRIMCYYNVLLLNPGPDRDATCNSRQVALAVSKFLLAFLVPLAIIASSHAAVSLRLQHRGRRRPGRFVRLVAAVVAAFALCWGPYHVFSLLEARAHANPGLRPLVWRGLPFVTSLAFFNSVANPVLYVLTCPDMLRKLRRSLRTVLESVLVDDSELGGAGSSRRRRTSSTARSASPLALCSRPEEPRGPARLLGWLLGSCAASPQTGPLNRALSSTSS
Experimental: The ability of a compound to bind to the human DP2 receptor is assessed via a radioligand binding assay using [^3H]PGD2. HEK293 cells stably expressing recombinant human DP2 are resuspended in 10 mM Hepes, 7.4 containing 1 mM DTT, lysed and centrifuged at 75,000×g to pellet the membranes. The membranes are resuspended in 10 mM Hepes, 7.4 containing 1 mM DTT and 10% glycerol to approximately 5 mg protein/ml. Membranes (2-10 μg protein/well) are incubated in 96-well plates with 1 nM [^3H]PGD2 and test compound in Assay Buffer (50 mM Hepes, 10 mM MnCl2, 1 mM EDTA, plus or minus 0.2% human serum albumin, pH 7.4) for 60 minutes at room temperature. The reactions are terminated by rapid filtration through Whatman GF/C glass fibre filter plates. The filter plates were pre-soaked in 0.33% polythylenimine for 30 minutes at room temperature then washed in Wash Buffer (50 mM Hepes, 0.5 M NaCl pH 7.4) prior to harvesting. After harvesting, the filter plates are washed 3 times with 1 ml cold Wash Buffer then dried. Scintillant is then added to the plates and the radioactivity retained on the filters is determined on a Packard TopCount (Perkin Elmer). Specific binding is determined as total radioactive binding minus non-specific binding in the presence of 10 μM PGD2. IC50s were determined using GraphPad prism analysis of drug titration curves.

Row | IC50 (human DP1 receptor) [nM] | IC50 (human DP2 receptor) [nM] | Compound
1 | < 300 | < 300 | COc1ccc(CC(=O)O)cc1Oc1ccc(NC(=O)c2ccc(Cl)cc2)cc1CSCc1ccccc1 [Compound 18, {3-[2-Benzylsulfanylmethyl-4-(4-chloro-benzoylamino)-phenoxy]-4-methoxy-phenyl}-acetic acid]
2 | < 300 | < 300 | COc1ccc(CC(=O)O)cc1Oc1ccc(NC(=O)c2ccc(F)cc2)cc1CSC(C)(C)C [Compound 63, {3-[2-tert-Butylsulfanylmethyl-4-(4-fluoro-benzoylamino)-phenoxy]-4-methoxy-phenyl}-acetic acid]
3 | < 300 | < 300 | COc1ccc(CC(=O)O)cc1Oc1ccc(NC(=O)c2ccc(Cl)cc2Cl)cc1CSC(C)(C)C [Compound 65, {3-[2-tert-Butylsulfanylmethyl-4-(2,4-dichloro-benzoylamino)-phenoxy]-4-methoxy-phenyl}-acetic acid]
4 | < 300 | < 300 | COc1ccc(CC(=O)O)cc1Oc1ccc(NC(=O)c2ccccc2)cc1CSC(C)(C)C [Compound 58, [3-(4-benzoylamino-2-tert-butylsulfanylmethyl-phenoxy)-4-methoxy-phenyl]-acetic acid]
5 | > 1000 | < 300 | COc1ccc(CC(=O)O)cc1Oc1ccc(NC(=O)c2ccc(Cl)cc2)cc1CSc1ccccc1 [Compound 17, {3-[4-(4-Chloro-benzoylamino)-2-phenylsulfanylmethyl-phenoxy]-4-methoxy-phenyl}-acetic acid]
6 | > 1000 | 300 to 1000 | COc1ccc(CC(=O)O)cc1Oc1ccc(N2CCNC2=O)cc1CSCC(F)(F)F [Compound 57, {4-Methoxy-3-[4-(2-oxo-imidazolidin-1-yl)-2-(2,2,2-trifluoro-ethylsulfanylmethyl)-phenoxy]-phenyl}-acetic acid]
7 | < 300 | < 300 | COc1ccc(CC(=O)O)cc1Oc1ccc(NC(=O)c2cccc(F)c2)cc1CSC(C)(C)C [Compound 62, {3-[2-tert-Butylsulfanylmethyl-4-(3-fluoro-benzoylamino)-phenoxy]-4-methoxy-phenyl}-acetic acid]
8 | < 300 | < 300 | CC(C)(C)C(=O)Nc1ccc(Oc2cc(CC(=O)O)ccc2O)c(C[S+]([O-])C(C)(C)C)c1 (centres unmarked) [Compound 76, {3-[4-(2,2-Dimethyl-propionylamino)-2-(2-methyl-propane-2-sulfinylmethyl)-phenoxy]-4-hydroxy-phenyl}-acetic acid]
9 | > 1000 | < 300 | COc1ccc(CC(=O)O)cc1Oc1ccc(NC(=O)c2ccc(Cl)cc2)cc1CSc1nnc(C)s1 [Compound 19, {3-[4-(4-Chloro-benzoylamino)-2-(5-methyl-[1,3,4]thiadiazol-2-ylsulfanylmethyl)-phenoxy]-4-methoxy-phenyl}-acetic acid]
10 | > 1000 | < 300 | CC(C)(C)C(=O)Nc1ccc(Oc2cc(CC(=O)O)cc(C(F)(F)F)c2)c(CSCC(F)(F)F)c1 [Compound 32, {3-[4-(2,2-Dimethyl-propionylamino)-2-(2,2,2-trifluoro-ethylsulfanylmethyl)-phenoxy]-5-trifluoromethyl-phenyl}-acetic acid]
11 | < 300 | < 300 | CC(C)(C)SCc1cc(NC(=O)C(C)(C)C)ccc1Oc1cc(CC(=O)O)ccc1Cl [Compound 59, {3-[2-tert-Butylsulfanylmethyl-4-(2,2-dimethyl-propionylamino)-phenoxy]-4-chloro-phenyl}-acetic acid]
12 | 300 to 1000 | < 300 | COc1ccc(CC(=O)O)cc1Oc1ccc(NC(=O)c2cccnc2)cc1CSCC(F)(F)F [Compound 70, {4-methoxy-3-[4-[(pyridine-3-carbonyl)-amino]-2-(2,2,2-trifluoro-ethylsulfanylmethyl)-phenoxy]-phenyl}-acetic acid]
13 | > 1000 | < 300 | COc1ccc(CC(=O)O)cc1Oc1ccc(NC(=O)c2ccc(Cl)cc2)cc1CSCC(F)(F)F [Compound 1, {3-[4-(4-Chloro-benzoylamino)-2-(2,2,2-trifluoro-ethylsulfanylmethyl)-phenoxy]-4-methoxy-phenyl}-acetic acid]
14 | < 300 | < 300 | CC(C)C(=O)Nc1ccc(Oc2cc(CC(=O)O)ccc2Cl)c(CSC(C)(C)C)c1 [Compound 61, [3-(2-tert-Butylsulfanylmethyl-4-isobutyrylamino-phenoxy)-4-chloro-phenyl]-acetic acid]
15 | < 300 | < 300 | COc1ccc(CC(=O)O)cc1Oc1ccc(NC(=O)c2ccc(C(F)(F)F)cc2)cc1CSCC(F)(F)F [Compound 69, {4-methoxy-3-[2-(2,2,2-trifluoro-ethylsulfanylmethyl)-4-(4-trifluoromethyl-benzoylamino)-phenoxy]-phenyl}-acetic acid]
16 | > 1000 | < 300 | CC(C)SCc1cc(NC(=O)C(C)(C)C)ccc1Oc1cc(Cl)cc(CC(=O)O)c1 [Compound 30, {3-Chloro-5-[4-(2,2-dimethyl-propionylamino)-2-isopropylsulfanylmethyl-phenoxy]-phenyl}-acetic acid]
17 | < 300 | < 300 | COc1ccc(CC(=O)O)cc1Oc1ccc(NC(=O)c2ccccc2F)cc1CSC(C)(C)C [Compound 64, {3-[2-tert-Butylsulfanylmethyl-4-(2-fluoro-benzoylamino)-phenoxy]-4-methoxy-phenyl}-acetic acid]
18 | < 300 | < 300 | CC(C)(C)SCc1cc(NC(=O)c2ccc(Cl)cc2)ccc1Oc1cc(CC(=O)O)ccc1Cl [Compound 60, {3-[2-tert-Butylsulfanylmethyl-4-(4-chloro-benzoylamino)-phenoxy]-4-chloro-phenyl}-acetic acid]
19 | < 300 | < 300 | COc1ccc(CC(=O)O)cc1Oc1ccc(NC(=O)c2cc(F)cc(F)c2)cc1CSC(C)(C)C [Compound 67, {3-[2-tert-Butylsulfanylmethyl-4-(3,5-difluoro-benzoylamino)-phenoxy]-4-methoxy-phenyl}-acetic acid]
20 | > 1000 | 300 to 1000 | O=C(O)CCn1c2c(c3ccccc31)C[C@H](NS(=O)(=O)c1ccc(F)cc1)CC2 [Ramatroban, reference compound]
21 | > 1000 | < 300 | COc1ccc(CC(=O)O)cc1Oc1ccc(NC(=O)C(C)(C)C)cc1CSCC(F)(F)F [Compound 2, {3-[4-(2,2-dimethyl-propionylamino)-2-(2,2,2-trifluoro-ethylsulfanylmethyl)-phenoxy]-4-methoxy-phenyl}-acetic acid]
22 | > 1000 | < 300 | COc1ccc(CC(=O)O)cc1Oc1ccc(NC(=O)C(C)(C)C)cc1CSC(C)(C)C [Compound 7, {3-[2-tert-Butylsulfanylmethyl-4-(2,2-dimethyl-propionylamino)-phenoxy]-4-methoxy-phenyl}-acetic acid]
